Our source for the IC50 values is patent US11299478B2, “2-cyanopyrimidin-4-yl carbamate or urea derivative or salt thereof, and pharmaceutical composition including same” (HANLIM PHARMACEUTICAL CO., LTD., priority 2018, dated 2022).

Common to all, as to format: biochemical
In test [1] the target is T1, cathepsin K (Homo sapiens, UniProt P43235).
T1 sequence (P43235 115-329): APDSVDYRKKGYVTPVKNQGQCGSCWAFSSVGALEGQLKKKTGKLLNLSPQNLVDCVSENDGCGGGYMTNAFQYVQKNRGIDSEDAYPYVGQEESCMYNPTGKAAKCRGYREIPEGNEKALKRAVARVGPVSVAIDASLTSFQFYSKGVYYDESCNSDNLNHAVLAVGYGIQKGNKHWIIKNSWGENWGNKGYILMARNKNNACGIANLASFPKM
Nature of the test: Inhibitory activity assay against cathepsin K (enzyme assay). The note with it: Z-Phe-Arg-AMC 10 μM, enzyme 1 nM, pH 5.5, 30 minutes. As for the experimental part: In order to measure the enzyme activity of cathepsin K, a buffer solution (pH 5.5) consisting of 50 mM 2-(N-morpholino)ethanesulfonic acid (MES), 2 mM dithiothreitol (DTT), 2.5 mM ethylenediaminetetraacetic acid (EDTA), 0.01% Triton X-100, and 10% dimethyl sulfoxide (DMSO) was prepared. The substrate, the test material, and the enzyme were mixed in the buffer solution in a predetermined concentration. The Z-Phe-Arg-AMC substrate was used in the final concentration of 10 μM. The test material was used in the final concentrations of 10.0 μM, 3.33 μM, 1.11 μM, 0.370 μM, 0.123 μM, 0.0412 μM, 0.0137 μM, 0.00457 μM, 0.00152 μM, and 0.000508 μM, respectively. The cathepsin K enzyme was used in the final concentration of 1 nM. The final volume of the enzyme reaction solution was 10 μL. After reacting the mixture of substrate, test material, and enzyme for 30 minutes, the enzyme activity was measured with the Synergy Neo (Biotek) microplate reader at an absorption wavelength of 355 nm and an emission wavelength of 460 nm. IC50 values were determined using 4-parameter logistic curve fit program of GraphPad Prism.

The target in test [2] is cathepsin B (Homo sapiens, UniProt P07858). The test is described as follows: Inhibitory activity assay against cathepsin B (enzyme assay). The note with it: Z-Arg-Arg-AMC 40 μM, enzyme 1 nM, pH 6.0, 90 minutes. The protocol:
In order to measure the enzyme activity of cathepsin B, a buffer solution (pH 6.0) consisting of 50 mM MES, 5 mM DTT, 2.5 mM EDTA, 0.005% Polysorbate 20, and 10% DMSO was prepared. The substrate, the test material, and the enzyme were mixed in the buffer solution in a predetermined concentration. The Z-Arg-Arg-AMC substrate was used in the final concentration of 40 μM. The test material was used in the final concentrations of 10.0 μM, 3.33 μM, 1.11 μM, 0.370 μM, 0.123 μM, 0.0412 μM, 0.0137 μM, 0.00457 μM, 0.00152 μM, and 0.000508 μM, respectively. The cathepsin B enzyme was used in the final concentration of 1 nM. The final volume of the enzyme reaction solution was 10 μL. After reacting the mixture of substrate, test material, and enzyme for 90 minutes, the enzyme activity was measured with the EnVision (Perkin Elmer) microplate reader at an absorption wavelength of 340 nm and an emission wavelength of 460 nm. IC50 values were determined using 4-parameter logistic curve fit program of GraphPad Prism.

Test [3] has as its target cathepsin L (Homo sapiens, UniProt P07711). Nature of the test: Inhibitory activity assay against cathepsin L (enzyme assay). The following applies: Z-Phe-Arg-AMC 2 μM, enzyme 3 nM, pH 5.5, 30 minutes. As for the experimental part:
In order to measure the enzyme activity of cathepsin L, a buffer solution (pH 5.5) consisting of 50 mM MES, 2.5 mM DTT, 2.5 mM EDTA, 0.005% Polysorbate 20, and 10% DMSO was prepared. The substrate, the test material, and the enzyme were mixed in the buffer solution in a predetermined concentration. The Z-Phe-Arg-AMC substrate was used in the final concentration of 2 μM. The test material was used in the final concentrations of 10.0 μM, 3.33 μM, 1.11 μM, 0.370 μM, 0.123 μM, 0.0412 μM, 0.0137 μM, 0.00457 μM, 0.00152 μM, and 0.000508 μM, respectively. The cathepsin L enzyme was used in the final concentration of 3 nM. The final volume of the enzyme reaction solution was 10 μL. After reacting the mixture of substrate, test material, and enzyme for 30 minutes, the enzyme activity was measured with the EnVision (Perkin Elmer) microplate reader at an absorption wavelength of 340 nm and an emission wavelength of 460 nm. IC50 values were determined using 4-parameter logistic curve fit program of GraphPad Prism.

Test [4] addresses cathepsin S (Homo sapiens, UniProt P25774). The test is described as follows: Inhibitory activity assay against cathepsin S (enzyme assay). The note with it: Z-Phe-Arg-AMC 70 μM, enzyme 3 nM, pH 6.5, 45 minutes. As for the experimental part: In order to measure the enzyme activity of cathepsin S, a buffer solution (pH 6.5) consisting of 50 mM MES, 2.5 mM DTT, 1.0 mM EDTA, 0.001% bovine serum albumin (BSA), and 10% DMSO was prepared. The substrate, the test material, and the enzyme were mixed in the buffer solution in a predetermined concentration. The Z-Phe-Arg-AMC substrate was used in the final concentration of 70 μM. The test material was used in the final concentrations of 10.0 μM, 3.33 μM, 1.11 μM, 0.370 μM, 0.123 μM, 0.0412 μM, 0.0137 μM, 0.00457 μM, 0.00152 μM, and 0.000508 μM, respectively. The cathepsin S enzyme was used in the final concentration of 3 nM. The final volume of the enzyme reaction solution was 10 μL.
After reacting the mixture of substrate, test material, and enzyme for 45 minutes, the enzyme activity was measured with the EnVision (Perkin Elmer) microplate reader at an absorption wavelength of 340 nm and an emission wavelength of 460 nm. IC50 values were determined using 4-parameter logistic curve fit program of GraphPad Prism.

A value given as a limit tells only on which side of the number the result lay.

cathepsin L, sequence (P07711 114-333, species assumed): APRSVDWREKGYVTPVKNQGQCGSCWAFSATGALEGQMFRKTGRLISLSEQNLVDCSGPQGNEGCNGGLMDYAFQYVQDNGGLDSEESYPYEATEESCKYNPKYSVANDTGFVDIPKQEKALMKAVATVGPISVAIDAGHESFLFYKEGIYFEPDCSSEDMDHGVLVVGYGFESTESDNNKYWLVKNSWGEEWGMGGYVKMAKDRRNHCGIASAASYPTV
cathepsin S, sequence (P25774 115-331, species assumed): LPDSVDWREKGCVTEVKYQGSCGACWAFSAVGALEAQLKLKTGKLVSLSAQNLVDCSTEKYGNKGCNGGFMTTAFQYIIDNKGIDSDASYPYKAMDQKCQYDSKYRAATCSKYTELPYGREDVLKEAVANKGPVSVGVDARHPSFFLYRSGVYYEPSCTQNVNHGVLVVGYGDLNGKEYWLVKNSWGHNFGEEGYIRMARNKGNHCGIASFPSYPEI

Take `N#Cc1nccc(C2(NC(=O)Nc3ccc(-c4ccc(CC(=O)O)cc4)cc3)CCCCC2)n1` [Example 161, 2-(4′-(3-(1-(2-cyanopyrimidin-4-yl)cyclohexyl)ureido)-[1,1′-biphenyl]-4-yl)acetic acid]: the IC50 in test [1] is 61.1 nM; in test [2] it was greater than 10000 nM; in test [3], greater than 10000 nM; in test [4], greater than 10000 nM.

With `COCCNC(=O)c1ccc(-c2ccc(NC(=O)NC3(c4ccnc(C#N)n4)CCCCC3)cc2)cc1` [Example 147, 4′-(3-(1-(2-cyanopyrimidin-4-yl)cyclohexyl)ureido)-N-(2-methoxyethyl)-[1,1′-biphenyl]-4-carboxamide], the half-inhibitory concentration (IC50) is 5.2 nM in test [1], greater than 10000 nM in test [2], greater than 10000 nM in test [3] and 7930 nM in test [4].

On to `N#Cc1nccc(C2(NC(=O)OCc3ccc(C(F)(F)F)cc3)CCCCC2)n1` [Example 24, 4-(trifluoromethyl)benzyl (1-(2-cyanopyrimidin-4-yl)cyclohexyl)carbamate], for which the IC50 in test [1] was 37.9 nM; in test [2], greater than 10000 nM; in test [3] it was greater than 10000 nM; in test [4], greater than 10000 nM.

Regarding `N#Cc1nccc(C2(NC(=O)OCc3cccc(F)c3)CCCC2)n1` [Example 7, 3-fluorobenzyl (1-(2-cyanopyrimidin-4-yl)cyclopentyl)carbamate], the IC50 is 56.3 nM in test [1], greater than 10000 nM in test [2], 3550 nM in test [3] and greater than 10000 nM in test [4].

Regarding `CS(=O)(=O)c1ccc(-c2ccc(NC(=O)NC3(c4ccnc(C#N)n4)CCCCC3)cc2C(F)(F)F)cc1` [Example 162, 1-(1-(2-cyanopyrimidin-4-yl)cyclohexyl)-3-(4′-(methylsulfonyl)-2-(trifluoromethyl)-[1,1′-biphenyl]-4-yl)urea], the IC50 in test [1] is 8.3 nM; in test [2], greater than 10000 nM; in test [3], 6520 nM; in test [4] it was 3950 nM.

On to `N#Cc1nccc(C2(NC(=O)Nc3ccccc3C(F)(F)F)CCCCC2)n1` [Example 92, 1-(1-(2-cyanopyrimidin-4-yl)cyclohexyl)-3-(2-(trifluoromethyl)phenyl)urea], for which the IC50 in test [1] is 40.9 nM; in test [2], greater than 10000 nM; in test [3] it was greater than 10000 nM; in test [4], greater than 10000 nM.

With `N#Cc1nccc(C2(NC(=O)Nc3ccc(F)c(C(F)(F)F)c3)CCOCC2)n1` [Example 85, 1-(4-(2-cyanopyrimidin-4-yl)tetrahydro-2H-pyran-4-yl)-3-(4-fluoro-3-(trifluoromethyl)phenyl)urea], the IC50 in test [1] is 28.2 nM; in test [2] it was greater than 10000 nM; in test [3] it was greater than 10000 nM; in test [4], greater than 10000 nM.

Regarding `Cc1cc(C)cc(NC(=O)NC2(c3ccnc(C#N)n3)CCCC2)c1` [Example 63, 1-(1-(2-cyanopyrimidin-4-yl)cyclopentyl)-3-(3,5-dimethylphenyl)urea], the IC50 in test [1] is 64.3 nM; in test [2] it was greater than 10000 nM; in test [3] it was greater than 10000 nM; in test [4], greater than 10000 nM.

Turning to `CC(=O)Nc1ccc(-c2ccc(NC(=O)NC3(c4ccnc(C#N)n4)CCCCC3)cc2F)cc1` [Example 164, N-(4′-(3-(1-(2-cyanopyrimidin-4-yl)cyclohexyl)ureido)-2′-fluoro-[1,1′-biphenyl]-4-yl)acetamide], the half-maximal inhibitory concentration (IC50) is 6.2 nM in test [1], greater than 10000 nM in test [2], greater than 10000 nM in test [3] and 4640 nM in test [4].

Turning to `N#Cc1nccc(C2(NC(=O)Nc3ccc(-c4ccc(C(=O)O)cc4)c(C(F)(F)F)c3)CCCCC2)n1` [Example 163, 4′-(3-(1-(2-cyanopyrimidin-4-yl)cyclohexyl)ureido)-2′-(trifluoromethyl)-[1,1′-biphenyl]-4-carboxylic acid], the IC50 in test [1] was 25.2 nM; in test [2], greater than 10000 nM; in test [3], greater than 10000 nM; in test [4], 3370 nM.

`N#Cc1nccc(C2(NC(=O)Nc3cc(C(F)(F)F)cc(C(F)(F)F)c3)CCCCC2)n1` [Example 95, 1-(3,5-bis(trifluoromethyl)phenyl)-3-(1-(2-cyanopyrimidin-4-yl)cyclohexyl)urea]: the concentration for half-maximal inhibition (IC50) is 18.3 nM in test [1], greater than 10000 nM in test [2], greater than 10000 nM in test [3] and greater than 10000 nM in test [4].

`N#Cc1nccc(C2(NC(=O)Nc3ccc(Br)cc3)CCCCC2)n1` [Example 110, 1-(4-bromophenyl)-3-(1-(2-cyanopyrimidin-4-yl)cyclohexyl)urea]: the concentration for half-maximal inhibition (IC50) in test [1] is 22.9 nM; in test [2], greater than 10000 nM; in test [3], greater than 10000 nM; in test [4] it was greater than 10000 nM.

For the compound `N#Cc1nccc(C2(NC(=O)OCc3cccc(F)c3)CCCCC2)n1` [Example 15, 3-fluorobenzyl (1-(2-cyanopyrimidin-4-yl)cyclohexyl)carbamate], the 50% inhibitory concentration (IC50) was 45.5 nM in test [1], greater than 10000 nM in test [2], 1620 nM in test [3] and 8600 nM in test [4].

As for `CC(C)N1CCN(c2ccc(-c3ccc(NC(=O)NC4(c5ccnc(C#N)n5)CCCCC4)cc3)cc2)CC1` [Example 154, 1-(1-(2-cyanopyrimidin-4-yl)cyclohexyl)-3-(4′-(4-isopropylpiperazin-1-yl)-[1,1′-biphenyl]-4-yl)urea], the concentration for half-maximal inhibition (IC50) is 0.3 nM in test [1], 3210 nM in test [2], 4280 nM in test [3] and greater than 10000 nM in test [4].

Regarding `CN(C(=O)NC1(c2ccnc(C#N)n2)CCCCC1)c1ccccc1` [Example 104, 3-(1-(2-cyanopyrimidin-4-yl)cyclohexyl)-1-methyl-1-phenylurea], the IC50 is 12.4 nM in test [1], greater than 10000 nM in test [2], 5590 nM in test [3] and 3540 nM in test [4].

As for `Cn1cc(-c2ccc(NC(=O)NC3(c4ccnc(C#N)n4)CCCCC3)cc2)cn1` [Example 120, 1-(1-(2-cyanopyrimidin-4-yl)cyclohexyl)-3-(4-(1-methyl-1H-pyrazol-4-yl)phenyl)urea], the IC50 was 3.9 nM in test [1], 9280 nM in test [2], greater than 10000 nM in test [3] and greater than 10000 nM in test [4].

As to `N#Cc1nccc(C2(NC(=O)NCc3ccccc3F)CCCC2)n1` [Example 40, 1-(1-(2-cyanopyrimidin-4-yl)cyclopentyl)-3-(2-fluorobenzyl)urea], the 50% inhibitory concentration (IC50) was 93.3 nM in test [1], greater than 10000 nM in test [2], 9230 nM in test [3] and greater than 10000 nM in test [4].
